Data published in patent US20120058989A1, “ANTIBACTERIAL FLUOROQUINOLONE ANALOGS” (Achaogen, Inc., priority 2008, published 2012).
Values after ≈ are worked out from the molar mass of the structure shown. Where two headings read alike, the source gives them in different places. One block for each molecule: values may come before it.

Legend:
Assay in all cases: MIC, CLSI broth microdilution
Type in all cases: cell-based
[1] = system: E. coli AECO001 (Fluoroquinolone susceptible, ATCC25922); conditions: for MIC: Escherichia coli
Procedure, shortened: (§1)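 MICs were read after 20 hours at 35° C in ambient air, with a final inoculum of 5×10^5 CFU/mL from saline-suspended overnight colonies. Serial two-fold dilutions in Mueller Hinton Broth followed the CLSI reference method (M7-A7), with QC strains E. coli ATCC 25922, P. aeruginosa ATCC 27853 and S. aureus ATCC 29213.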

[2] = system: S. aureus ASAU001 (Fluoroquinolone-susceptible, ATCC29213); conditions: for MIC: Staphylococcus aureus
Procedure, shortened: as §1

[3] = system: P. aeruginosa APAE002 (Fluoroquinolone susceptible); conditions: Table 3
Procedure, shortened: as §1

[4] = system: S. aureus ASAU002 (Fluoroquinolone-susceptible, ATCC33591 (MRSA)); conditions: Table 3
Procedure, shortened: as §1

[5] = system: S. aureus ASAU1033 (Fluoroquinolone-resistant); conditions: Table 3
Procedure, shortened: as §1

[6] = system: A. baumannii AABA1009 (Fluoroquinolone-resistant); conditions: for MIC AABA 1009: Table 2
Procedure, shortened: as §1

[7] = system: E. coli AECO086 (Fluoroquinolone-resistant); conditions: Table 3
Procedure, shortened: as §1

[8] = system: A. baumannii AABA1020 (Fluoroquinolone-resistant); conditions: Table 3
Procedure, shortened: as §1

[9] = system: P. aeruginosa APAE054 (Fluoroquinolone-resistant); conditions: for MIC: Pseudomonas aeruginosa
Procedure, shortened: as §1

[10] = system: P. aeruginosa APAE001 (Fluoroquinolone-susceptible, ATCC27853); conditions: for MIC: Pseudomonas aeruginosa
Procedure, shortened: as §1

[11] = system: S. pneumoniae ASPN1027 (Fluoroquinolone-resistant); conditions: for MIC: Streptococcus pneumoniae
Procedure, shortened: as §1

[12] = system: A. baumannii AABA1065 (Fluoroquinolone-susceptible); conditions: for MIC: Acinetobacter baumannii
Procedure, shortened: as §1

[13] = system: S. pneumoniae ASPN002 (Fluoroquinolone-susceptible, ATCC10813); conditions: Table 3
Procedure, shortened: as §1

[14] = system: S. pneumoniae ASPN001 (Fluoroquinolone-susceptible, ATCC49619); conditions: for MIC: Streptococcus pneumoniae
Procedure, shortened: as §1

[15] = system: E. coli AECO002 (Fluoroquinolone susceptible); conditions: Table 3
Procedure, shortened: as §1

[16] = system: E. coli AECO066 (Fluoroquinolone-resistant); conditions: for MIC: Escherichia coli
Procedure, shortened: as §1

[17] = system: S. pneumoniae ASPN1018 (Fluoroquinolone-resistant); conditions: Table 3
Procedure, shortened: as §1

[18] = system: S. aureus ASAU1031 (Fluoroquinolone-resistant); conditions: for MIC: Staphylococcus aureus
Procedure, shortened: as §1

MIC AECO 001 ([1]; Table 3): C (MIC's of 2.0 μg/mL to 8.0 μg/mL = C)
MIC ASAU 001 ([2]; Table 3): C (MIC's of 2.0 μg/mL to 8.0 μg/mL = C)
MIC APAE002 [3]: D (MIC's of greater than 8.0 μg/mL = D)
MIC ASAU002 [4]: C (MIC's of 2.0 μg/mL to 8.0 μg/mL = C)
MIC ASAU1033 [5]: D (MIC's of greater than 8.0 μg/mL = D)
MIC AABA 1009 [6]: C (MIC's of greater than 8.0 μg/mL = C)
MIC AECO086 [7]: D (MIC's of greater than 8.0 μg/mL = D)
MIC AABA1020 [8]: D (MIC's of greater than 8.0 μg/mL = D)
MIC APAE 054 ([9]; Table 2): C (MIC's of greater than 8.0 μg/mL = C)
MIC APAE 054 ([9]; Table 3): D (MIC's of greater than 8.0 μg/mL = D)
MIC APAE 001 ([10]; Table 2): C (MIC's of greater than 8.0 μg/mL = C)
MIC APAE 001 ([10]; Table 3): D (MIC's of greater than 8.0 μg/mL = D)
MIC ASPN 1027 ([11]; Table 2): C (MIC's of greater than 8.0 μg/mL = C)
MIC ASPN 1027 ([11]; Table 3): D (MIC's of greater than 8.0 μg/mL = D)
MIC AABA 1065 ([12]; Table 3): C (MIC's of 2.0 μg/mL to 8.0 μg/mL = C)
MIC ASPN002 [13]: D (MIC's of greater than 8.0 μg/mL = D)
MIC ASPN 001 ([14]; Table 2): C (MIC's of greater than 8.0 μg/mL = C)
MIC ASPN 001 ([14]; Table 3): D (MIC's of greater than 8.0 μg/mL = D)
MIC AECO002 [15]: C (MIC's of 2.0 μg/mL to 8.0 μg/mL = C)
MIC AECO 066 ([16]; Table 2): C (MIC's of greater than 8.0 μg/mL = C)
MIC AECO 066 ([16]; Table 3): D (MIC's of greater than 8.0 μg/mL = D)
MIC ASPN1018 [17]: D (MIC's of greater than 8.0 μg/mL = D)
MIC ASAU 1031 ([18]; Table 2): C (MIC's of greater than 8.0 μg/mL = C)
MIC ASAU 1031 ([18]; Table 3): D (MIC's of greater than 8.0 μg/mL = D)
Structure (SMILES): NC1CC2CCCc3c(c(F)cc4c(=O)c(C(=O)O)cn(C5CC5)c34)N2C1.O=C(O)C(F)(F)F [7C/29, (7aS,9S)-9-Amino-4-cyclopropyl-12-fluoro-1-oxo-4,5,6,7,7a,8,9,10-octahydro-1H-pyrrolo quinoline-2-carboxylic acid trifluoroacetate]
MIC AECO 001 ([1]; Table 2, 35° C., 20 hours): B (MIC's of greater than 1.0 μg/mL to 8.0 μg/mL = B)
MIC ASAU 001 ([2]; Table 2): B (MIC's of greater than 1.0 μg/mL to 8.0 μg/mL = B)
MIC AABA 1065 ([12]; Table 2): B (MIC's of greater than 1.0 μg/mL to 8.0 μg/mL = B)

MIC ([1]; Table 2, 35° C., 20 hours, read-out: MIC AECO 001): ≤ 1 µg/mL
MIC ([1]; Table 3): < 1 µg/mL
MIC ([2]; Table 2, read-out: MIC ASAU 001): ≤ 1 µg/mL
MIC ([2]; Table 3): < 1 µg/mL
MIC ([3]; Pseudomonas aeruginosa): < 1 µg/mL
MIC ([4]; Staphylococcus aureus): < 1 µg/mL
MIC ([5]; Staphylococcus aureus): > 8 µg/mL
MIC ([6]; Acinetobacter baumannii, Table 2, read-out: MIC AABA 1009): > 8 µg/mL
MIC ([7]; Escherichia coli): 2 to 8 µg/mL (≈ 5.38 to 21.5 µM)
MIC ([8]; Acinetobacter baumannii): > 8 µg/mL
MIC ([9]; Table 2, read-out: MIC APAE 054): > 8 µg/mL
MIC ([9]; Table 3): > 8 µg/mL
MIC ([10]; Table 2, read-out: MIC APAE 001): 1 to 8 µg/mL (≈ 2.69 to 21.5 µM)
MIC ([10]; Table 3): < 1 µg/mL
MIC ([11]; Table 2, read-out: MIC ASPN 1027): 1 to 8 µg/mL (≈ 2.69 to 21.5 µM)
MIC ([11]; Table 3): 2 to 8 µg/mL (≈ 5.38 to 21.5 µM)
MIC ([12]; Table 2, read-out: MIC AABA 1065): ≤ 1 µg/mL
MIC ([12]; Table 3): < 1 µg/mL
MIC ([13]; Streptococcus pneumoniae): < 1 µg/mL
MIC ([14]; Table 2, read-out: MIC ASPN 001): ≤ 1 µg/mL
MIC ([14]; Table 3): < 1 µg/mL
MIC ([15]; Escherichia coli): < 1 µg/mL
MIC ([16]; Table 2, read-out: MIC AECO 066): 1 to 8 µg/mL (≈ 2.69 to 21.5 µM)
MIC ([16]; Table 3): 2 to 8 µg/mL (≈ 5.38 to 21.5 µM)
MIC ([17]; Streptococcus pneumoniae): 1 to 2 µg/mL (≈ 2.69 to 5.38 µM)
MIC ([18]; Table 2, read-out: MIC ASAU 1031): 1 to 8 µg/mL (≈ 2.69 to 21.5 µM)
MIC ([18]; Table 3): 2 to 8 µg/mL (≈ 5.38 to 21.5 µM)
Structure (SMILES): N[C@H]1C[C@H]2CCCc3c(c(F)cc4c(=O)c(C(=O)O)cn(C5CC5)c34)N2C1 [3/15]

MIC AECO 001 ([1]; Table 2, 35° C., 20 hours): A (MIC's of 1.0 μg/mL or less = A)
MIC ASAU 001 ([2]; Table 2): A (MIC's of 1.0 μg/mL or less = A)
MIC AABA 1009 [6]: C (MIC's of greater than 8.0 μg/mL = C)
MIC APAE 054 ([9]; Table 2): C (MIC's of greater than 8.0 μg/mL = C)
MIC APAE 001 ([10]; Table 2): C (MIC's of greater than 8.0 μg/mL = C)
MIC ASPN 1027 ([11]; Table 2): C (MIC's of greater than 8.0 μg/mL = C)
MIC ASPN 001 ([14]; Table 2): A (MIC's of 1.0 μg/mL or less = A)
MIC AECO 066 ([16]; Table 2): C (MIC's of greater than 8.0 μg/mL = C)
Structure (SMILES): O=C(O)c1cn(C2CC2)c2c3c(c(F)cc2c1=O)N1CCCC1CC=C3 (stereo not shown) [27/5, 4-Cyclopropyl-12-fluoro-1-oxo-4,7,7a,8,9,10-hexahydro-1H-pyrrolo[1′,2′:1,7]azepino[2,3-h]quinoline-2-carboxylic acid]
MIC AABA 1065 ([12]; Table 2): B (MIC's of greater than 1.0 μg/mL to 8.0 μg/mL = B)
MIC ASAU 1031 ([18]; Table 2): B (MIC's of greater than 1.0 μg/mL to 8.0 μg/mL = B)
